How the values were obtained:
CRTH2 = target: T1, CRTH2 (Homo sapiens, UniProt Q9Y5Y4); experiment: [35S]GTPγS binding assay (CHO-CRTH2 cell membranes); format: biochemical; parameters: expressed in transfected cells; host or cells: CHO-CRTH2 cells; conditions: for IC50: antagonist mode, fixed concentration of PGD2 (EC80); for Emax: inverse agonists, 100% of Emax = activity with 1 μM PGD2
T1 sequence (Q9Y5Y4 1-395): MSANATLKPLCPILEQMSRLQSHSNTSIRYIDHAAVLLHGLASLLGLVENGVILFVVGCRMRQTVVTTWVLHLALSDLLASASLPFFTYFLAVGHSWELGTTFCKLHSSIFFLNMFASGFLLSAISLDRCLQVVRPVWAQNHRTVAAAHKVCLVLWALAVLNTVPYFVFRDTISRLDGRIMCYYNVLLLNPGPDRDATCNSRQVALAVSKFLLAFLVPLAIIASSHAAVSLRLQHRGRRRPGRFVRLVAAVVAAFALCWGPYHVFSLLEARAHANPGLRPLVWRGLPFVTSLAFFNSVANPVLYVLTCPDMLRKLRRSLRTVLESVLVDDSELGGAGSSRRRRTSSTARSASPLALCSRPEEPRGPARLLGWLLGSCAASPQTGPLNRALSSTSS
Method: Adherent CHO cells expressing hCRTH2 (Euroscreen, Belgium) were cultured in 225 cm^2 cell culture flasks (Corning, USA) in 30 ml of medium. After two rinses of phosphate buffered saline (PBS), cells were harvested in 10 ml of PBS containing 1 mM EDTA, centrifuged at 500×g for 5 min at 4° C. and frozen at −80° C. The pellet was re-suspended in 50 mM Tris-HCl, pH 7.4, 2 mM EDTA, 250 mM Sucrose, containing protease inhibitor cocktail tablets, (Complete EDTA-free, Roche, Germany) and incubated 30 min at 4° C. Cells were disrupted by nitrogen cavitation (Parr Instruments, USA) at 4° C. (800 p.s.i. for 30 min), and centrifuged at 500×g for 10 min at 4° C. Pellet containing nuclei and cellular debris was discarded and supernatant was centrifuged 60 min at 4° C. at 45000×g. Membrane pellet was re-suspended in storage buffer (10 mM HEPES/KOH pH 7.4, 1 mM EDTA, 250 mM sucrose, protease inhibitor cocktail tablets) using Dounce homogenization and frozen in liquid nitrogen, and stored at −80° C.
The [^35S]GTPγS assay measures the increase in guanine nucleotide exchange at G-proteins in cell membranes, resulting from agonist (PGD2) binding to CRTH2. This process can be monitored in vitro by incubating cell membranes containing G-proteins and CRTH2 with GDP and [^35S]GTPγS, a radiolabeled, hydrolysis-resistant analogue of GTP (see, Harrison et al., Life Sciences 74, 489-508, 2003). The addition of a Compounds of Formula (I) results in binding to CRTH2 and thus in an inhibition of agonist binding, which can be monitored as inhibition of the stimulation of GTP/GDP exchange.
Briefly, Compounds of Formula (I) are incubated in 96-well scintillating white polystyrene plates (Perkin Elmer, USA) in a final volume of 200 μl containing 20 mM HEPES/KOH pH 7.4, 3 mM MgCl2, 10 μg/ml Saponin, 5 μM GDP, 75 mM NaCl and 2% of dimethylsulphoxide (DMSO). Reaction is triggered by the addition of 5-10 μg of CHO-CRTH2 cell membranes and 0.15 nM [^35S]GTPγS. After 60 min incubation at 30° C., reaction is stopped by centrifugation at 700×g, at 4° C. for 10 minutes and supernatant is removed. The radioactivity coming from the [^35S]GTPγS bound on centrifuged cell membranes is recorded using a 1450 Micro-beta scintillation counter. For IC50 determination, increasing concentrations of compounds are incubated in presence of a fixed concentration of PGD2 (EC80). For EC50 measurements, compounds are incubated without addition of PGD2. Basal [^35S]GTPγS activity is determined without addition of any ligands or compounds. 100% [^35S]GTPγS activity is measured by the addition of 1 μM of PGD2.

[1] = tested on: OVA-induced lung eosinophilia in mice; experiment: OVA-induced lung eosinophilia in mice; format: in vivo, BALB/c mice; conditions: BAL fluid, oral gavage
Method: BALB/c mice (6-8 weeks old) were immunized with ovalbumin (10 μg i.p) on day 0 and 7. In order to elicit a local inflammatory response in the lung, mice were challenged between day's 15-17 with a nebulised solution of ovalbumin (10 μg/ml; De Vilibiss Ultraneb 2000, once daily for 30 min during the 3 days). On each separate day between 15 and 17 each animal received via oral gavage the test compound, at t−1 h and t+7 h with respect to OVA exposure at t=0 h. Eight hours after the final OVA challenge, bronchoalveolar lavage (BAL) was then carried out. Total cell numbers in the BAL fluid samples were measured using a haemocytometer. Cytospin smears of the BAL fluid samples were prepared by centrifugation at 1200 rpm for 2 min at room temperature and stained using a DiffQuik stain system (Dade Behring) for differential cell counts. […]

Row | SMILES | IC50 (CRTH2) [nM] | % inhibition eosinophils (mean ± s.e.m.) ([1]; dose 3 mg/kg) [%] | % inhibition total cells (mean ± s.e.m.) ([1]; dose 3 mg/kg) [%] | % inhibition eosinophils (mean ± s.e.m.) ([1]; dose 10 mg/kg) [%] | % inhibition total cells (mean ± s.e.m.) ([1]; dose 10 mg/kg) [%] | % inhibition eosinophils (mean ± s.e.m.) ([1]; dose 30 mg/kg) [%] | % inhibition total cells (mean ± s.e.m.) ([1]; dose 30 mg/kg) [%] | Emax (CRTH2) [%]
1 | CN(C)S(=O)(=O)c1cncc(C#Cc2cc(Cl)ccc2OCC(=O)O)c1 [Example 35, [4-chloro-2-({5-[(dimethylamino)sulfonyl]pyridin-3-yl}ethynyl)phenoxy]acetic acid] | 126 |  |  |  |  |  |  | 
2 | CCCS(=O)(=O)c1ccc(C)c(C#Cc2cc(Cl)ccc2OCC(=O)O)c1 [Example 38, (4-chloro-2-{[2-methyl-5-(propylsulfonyl)phenyl]ethynyl}phenoxy)acetic acid] | 6 | 29 ± 14 | 21 ± 13 | 54 ± 16 | 42 ± 14 | 81 ± 7 | 67 ± 8 | 
3 | CCCS(=O)(=O)c1ccc(F)c(C#Cc2cc(Cl)ccc2OCC(=O)O)c1 [Example 89, (4-chloro-2-{[2-fluoro-5-(propylsulfonyl)phenyl]ethynyl}phenoxy)acetic acid] |  | 19 ± 18 | 12 ± 15 | 27 ± 10 | 19 ± 8 | 55 ± 11 | 44 ± 10 | 
4 | CC(C)S(=O)(=O)c1ccc(F)c(C#Cc2cc(Cl)ccc2OCC(=O)O)c1 [Example 102, (4-chloro-2-{[2-fluoro-5-(isopropylsulfonyl)phenyl]ethynyl}phenoxy)acetic acid] | 4 |  |  |  |  |  |  | 
5 | CN(C)S(=O)(=O)c1ccc(F)c(C#Cc2cc(Cl)ccc2OCC(=O)O)c1 [Example 107, [4-chloro-2-({5-[(dimethylamino)sulfonyl]-2-fluorophenyl}ethynyl)phenoxy]acetic acid] |  |  |  |  |  |  |  | -13
6 | O=C(O)COc1ccc(Cl)cc1C#Cc1ccc2c(c1)S(=O)(=O)c1ccccc1-2 [Example 154, {4-chloro-2-[(5,5-dioxidodibenzo[b,d]thien-3-yl)ethynyl]phenoxy}acetic acid] |  |  |  |  |  |  |  | -17
